This is an account of results in PMC8291587, “Guanidine Derivatives: How Simple Structural Modification of Histamine H3R Antagonists Has Led to the Discovery of Potent Muscarinic M2R/M4R Antagonists” (ACS Chemical Neuroscience, 2021).

T1 sequence (P31389 whole entry): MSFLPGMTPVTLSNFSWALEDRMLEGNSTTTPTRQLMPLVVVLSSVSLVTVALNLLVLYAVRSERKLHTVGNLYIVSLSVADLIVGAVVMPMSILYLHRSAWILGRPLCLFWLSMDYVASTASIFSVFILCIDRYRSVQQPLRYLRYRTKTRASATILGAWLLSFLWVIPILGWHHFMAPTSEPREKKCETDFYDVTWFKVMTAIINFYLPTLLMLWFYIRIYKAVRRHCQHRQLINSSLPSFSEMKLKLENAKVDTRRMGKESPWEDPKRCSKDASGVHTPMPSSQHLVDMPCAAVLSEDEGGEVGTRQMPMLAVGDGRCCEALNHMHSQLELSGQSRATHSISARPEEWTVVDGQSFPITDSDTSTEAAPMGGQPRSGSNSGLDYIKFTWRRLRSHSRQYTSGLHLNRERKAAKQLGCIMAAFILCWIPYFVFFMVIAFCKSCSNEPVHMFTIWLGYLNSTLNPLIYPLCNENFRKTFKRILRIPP
T2 sequence (Q9Y5N1 whole entry): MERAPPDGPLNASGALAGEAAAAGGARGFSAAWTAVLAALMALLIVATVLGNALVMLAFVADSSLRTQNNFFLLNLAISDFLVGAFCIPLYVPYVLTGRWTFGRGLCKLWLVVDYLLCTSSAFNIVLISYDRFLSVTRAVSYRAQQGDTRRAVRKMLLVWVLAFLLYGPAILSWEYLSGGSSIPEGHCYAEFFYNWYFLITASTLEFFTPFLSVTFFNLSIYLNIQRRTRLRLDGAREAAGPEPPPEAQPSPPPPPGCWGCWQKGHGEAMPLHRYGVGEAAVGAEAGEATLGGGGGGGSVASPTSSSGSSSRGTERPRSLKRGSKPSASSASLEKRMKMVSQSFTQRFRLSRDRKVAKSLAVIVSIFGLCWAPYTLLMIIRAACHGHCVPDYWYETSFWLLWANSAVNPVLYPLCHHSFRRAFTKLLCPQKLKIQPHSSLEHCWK

One series relates to M2R.
Experiment: not given
Further details: method as in PMID 11421251. The conditions noted are these: cited from earlier work.
`COc1ccc(S(=O)(=O)c2ccc(C3(C4CCN(C5CCN(C(=O)c6cccc(C)c6N)CC5)CC4)OCCO3)cc2)cc1` [SCH-217443]: the “effective dose in the rodent cognition model lower than that known to increase heart rate in rats” value is reported as 30 fold.

The next series addresses T1, H1R (Cavia porcellus, UniProt P31389).
T1 construct: from tissue; host or cells: isolated distal ileum of male guinea pigs
Description: Ex vivo screening of histamine H1R antagonists on guinea pig ileum, variant with 0.05 μM atropine. Particulars: isolated guinea pig ileum, histamine as agonist, read-out: H1R+atropine pA2 gpi ± sem (converted). As to the method: (§1) The second histamine receptor located in the guinea pig ileum is H1R. […] The H1R antagonistic effect was measured on isolated guinea pig ileum stimulated to contract by histamine.[37] To assess and exclude the influence of the ADS compounds on muscarinic receptors, two test variations were used: one with the addition of 0.05 μM atropine and one without.
(§2) Male guinea pigs, weighing 300–400 g, were euthanized by a blow to the neck. A 20–30 cm length of the distal ileum, apart from the terminal 5 cm, was rapidly removed and placed in phosphate buffer at room temperature (pH 7.4) containing (mM) NaCl (136.9), KCl (2.6), KH2PO4 (1.47), Na2HPO4 (9.58), and indomethacin (1 × 10^–6 mol/L). The intraluminal content was rinsed, and the isolated intestine was cut into 1.5–2 cm segments. The preparations were mounted isotonically in a 20 mL organ bath filled with Krebs buffer: composition (mM) NaCl (118), KCl (5.6), MgSO4 (1.18), CaCl2 (2.5), NaH2PO4·H2O (1.28), NaHCO3 (25), glucose (5.55), and indomethacin (3 × 10^–7 mol/L). […] The solution was continuously bubbled with a 95% O2:5% CO2 mixture and maintained at 37 °C under a constant load of 0.5 g (Hugo Sachs Hebel–Messvorsatz (Tl-2)/HF-modem; Hugo Sachs Elektronik, Hugstetten, Germany) connected to a pen recorder (Kipp & Zonen BD41, Delft, Holland). During an equilibration period of 40 min, Krebs buffer was changed every 10 min. The first cumulative concentration–response curve was determined for histamine (10 nM to 10 mM) at increasing concentrations spaced by 3- or 3.3-fold. The second to the fourth (or fifth) curves were measured in the presence of an increasing concentrations of antagonist (incubation time 10 min). The pA2 values were calculated according to Arunlakshana and Schild.[37] Statistical analysis was carried out with the Students’ t test. In all tests, a p < 0.05 was considered statistically significant.
For `N=C(N)N(CCCCN1CCN(Cc2ccc(COc3ccccc3)cc2)CC1)Cc1ccc(C(F)(F)F)cc1` [ADS10183], the Kb was 151 nM.
Turning to `N=C(N)N(CCCCN1CCN(Cc2ccc(COc3ccccc3)cc2)CC1)Cc1ccccc1` [ADS10185], the Kb was 100 nM.
`[H]/N=C(\N)N(CCCCN1CCN(CC2CCC(COc3ccccc3)CC2)CC1)Cc1ccc(C(F)(F)F)cc1` (stereo not drawn) [ADS10207]: the Kb is 120 nM.
The same measure, in the same setting: under `N=C(N)N(CCCCN1CCN(Cc2ccc(Oc3ccccc3)cc2)CC1)Cc1ccc(C(F)(F)F)cc1` [ADS10210] stands 97.7 nM; under `N=C(N)N(CCCCN1CCN(C[C@H]2CC[C@H](COc3ccccc3)CC2)CC1)Cc1ccccc1` [ADS10283], 166 nM.

A further series has as its system M2R/M3R. Description: Ex vivo screening of muscarinic M2R/M3R antagonists on isolated guinea pig ileum (methacholine-induced contraction). Particulars: methacholine as agonist. The protocol:
Another group of guinea pig intestinal receptors able to regulate smooth muscle contraction is that of the muscarinic receptors, including M2R and M3R. All compounds were tested on the muscarinic receptors using the same animal model. This approach is similar to measuring histamine H1R antagonist activity. Methacholine was used as a receptor agonist, while 1,1-dimethyl-4-diphenylacetoxypiperidinium iodide (4-DAMP) was used as a reference M3R antagonist. As methacholine is not selective according to M2R and M3R, it is not possible to precisely specify which one was responsible for the effect observed on the tissue preparations. Some authors often attribute the results to the minor M3R subtype (gpM2R:M3R = 4:1 or 5:1), which is generally associated with the contractions,[38] but such an overinterpretation may be misleading, as indicated by our further hM1R-hM5R radioligand binding assay results shown in Table 2. […] These findings partially explain the influence of ADS10227 on the contractility of guinea pig ileum following electrical stimulation. […] In subsequent studies, we tried to clarify this.
Male guinea pigs, weighing 300–400 g, were euthanized by a blow to the neck. A 20–30 cm length of the distal ileum, apart from the terminal 5 cm, was rapidly removed and placed in phosphate buffer at room temperature (pH 7.4) containing (mM) NaCl (136.9), KCl (2.6), KH2PO4 (1.47), Na2HPO4 (9.58), and indomethacin (1 × 10^–6 mol/L)). The intraluminal content was rinsed, and the isolated intestine was cut into 1.5–2 cm segments. The preparations were mounted isotonically in a 20 mL organ bath filled with Tyrode’s buffer: composition (mM) NaCl (137), KCl (2.7), MgCl2·6H2O (1.0), CaCl2 (1.8), NaH2PO4·H2O (0.4), NaHCO3 (11.9), glucose (5.61), and indomethacin (3 × 10^–7 mol/L). The solution was continuously bubbled with a 95% O2:5% CO2 mixture and maintained at 37 °C under a constant load of 0.5 g (Hugo Sachs Hebel–Messvorsatz (Tl-2)/HF-modem; Hugo Sachs Elektronik, Hugstetten, Germany) connected to a pen recorder (Kipp & Zonen BD41, Delft, Holland). During an equilibration period of 40 min, Tyrode’s buffer was changed every 10 min. The first cumulative concentration–response curve was determined for methacholine (10 nM to 3 mM) at increasing concentrations spaced by 3- or 3.3-fold. The second to the fourth (or fifth) curves were measured in the presence of an increasing concentration of antagonist (incubation time 20 min). The pA2 values were calculated according to Arunlakshana and Schild.[37] Statistical analysis was carried out with the Students’ t test. In all tests, a p < 0.05 was considered statistically significant.
On to `C[N+]1(C)CCC(OC(=O)C(c2ccccc2)c2ccccc2)CC1.[I-]` [4-DAMP, 1,1-dimethyl-4-diphenylacetoxypiperidinium iodide, reference compound], for which the “M2R/M3R pA2 gpi ± sem” value amounted to 9.05 ±0.11.
Consider `N=C(N)N(CCCCN1CCN(Cc2ccc(COc3ccccc3)cc2)CC1)Cc1ccc(C(F)(F)F)cc1` [ADS10183], for which the “M2R/M3R pA2 gpi ± sem” value came out at 5.83±0.22.
As to `N=C(N)N(CCCCN1CCN(Cc2ccc(COc3ccccc3)cc2)CC1)Cc1ccccc1` [ADS10185], the “M2R/M3R pA2 gpi ± sem” value amounted to 5.77±0.15.
For the molecule `[H]/N=C(\N)N(CCCCN1CCN(CC2CCC(COc3ccccc3)CC2)CC1)Cc1ccc(C(F)(F)F)cc1` (stereo not drawn) [ADS10207], the “M2R/M3R pA2 gpi ± sem” value is 5.68±0.15.
Consider `N=C(N)N(CCCCN1CCN(Cc2ccc(Oc3ccccc3)cc2)CC1)Cc1ccc(C(F)(F)F)cc1` [ADS10210], for which the “M2R/M3R pA2 gpi ± sem” value turned out to be 5.83±0.14.
Take `N=C(N)N(CCCCN1CCN(C[C@H]2CC[C@H](COc3ccccc3)CC2)CC1)Cc1ccccc1` [ADS10283]: the “M2R/M3R pA2 gpi ± sem” value came out at 6.02±0.07.

A further series deals with T1, H1R. Description: Ex vivo screening of histamine H1R antagonists on guinea pig ileum, variant without atropine. The conditions noted are these: isolated guinea pig ileum, histamine as agonist, read-out: H1R pA2 gpi ± sem (converted). The protocol:
as §1, §2
Turning to `N=C(N)N(CCCCN1CCN(Cc2ccc(COc3ccccc3)cc2)CC1)Cc1ccc(C(F)(F)F)cc1` [ADS10183], the Kb is 182 nM.
On the same count and under the same terms, then `N=C(N)N(CCCCN1CCN(Cc2ccc(COc3ccccc3)cc2)CC1)Cc1ccccc1` [ADS10185], with 105 nM; and `[H]/N=C(\N)N(CCCCN1CCN(CC2CCC(COc3ccccc3)CC2)CC1)Cc1ccc(C(F)(F)F)cc1` (stereo not drawn) [ADS10207], with 75.9 nM; and `N=C(N)N(CCCCN1CCN(Cc2ccc(Oc3ccccc3)cc2)CC1)Cc1ccc(C(F)(F)F)cc1` [ADS10210], with 60.3 nM.
For `N=C(N)N(CCCCN1CCN(C[C@H]2CC[C@H](COc3ccccc3)CC2)CC1)Cc1ccccc1` [ADS10283], the Kb was 145 nM.

The next series concerns the target T2, hH3R (Homo sapiens, UniProt Q9Y5N1).
T2 construct: expressed in transfected cells; membrane fractions
Description: hH3R radioligand displacement binding assay ([3H]-Nα-methylhistamine, HEK-293 cell membranes). Particulars: [3H]-Nα-methylhistamine; HEK-293 membranes; read-out: hH3R -log(Ki) ± sem (converted). As to the method: [^3H]-N^α-Methylhistamine was used as a radiolabeled ligand.
The radioligand displacement binding assay was performed in membrane fractions of HEK-293 cells stably expressing hH3R. Cell cultivation and membrane preparation were performed according to Kottke et al.[43] […] The total assay volume was set to 200 μL. The compounds were tested in several appropriate concentrations between 100 μM and 0.1 nM. Pipetting was partly done by Freedom Evo (Tecan). […] The membrane fraction (20 μg/well), test compounds, and radiolabeled ligand were incubated for 90 min at 25 °C while shaking. The bound radioligand was separated from free radioligand by filtration through GF/B filters pretreated with 0.3% (m/v) polyethylenimine using a cell harvester. Radioactivity was determined by liquid scintillation counting using a MicroBeta Trilux (PerkinElmer). The data were obtained in duplicates in at least three independent experiments. Nonspecific binding was subtracted from the raw data to calculate specific-binding values. The evaluation was performed with GraphPad Prism 6.1 (San Diego, CA, USA) using nonlinear regression (one-site competition with a logarithmic scale). The Ki values were calculated from the IC50 values using the Cheng–Prusoff equation.[44] The statistical calculations were performed on −log Ki. The mean values and 95% confidence intervals were transformed to nanomolar concentrations.
`N=C(N)N(CCCCN1CCN(Cc2ccc(COc3ccccc3)cc2)CC1)Cc1ccc(C(F)(F)F)cc1` [ADS10183]: the Ki is 1660 nM.
Consider `N=C(N)N(CCCCN1CCN(Cc2ccc(COc3ccccc3)cc2)CC1)Cc1ccccc1` [ADS10185], for which the Ki was 1350 nM.
On the same count and under the same terms, then `[H]/N=C(\N)N(CCCCN1CCN(CC2CCC(COc3ccccc3)CC2)CC1)Cc1ccc(C(F)(F)F)cc1` (stereo not drawn) [ADS10207], with 1620 nM.
For `N=C(N)N(CCCCN1CCN(Cc2ccc(Oc3ccccc3)cc2)CC1)Cc1ccc(C(F)(F)F)cc1` [ADS10210], the inhibition constant Ki is 1660 nM.
The same measure, in the same setting: then `N=C(N)N(CCCCN1CCN(C[C@H]2CC[C@H](COc3ccccc3)CC2)CC1)Cc1ccccc1` [ADS10283], with 2040 nM.

The series is the same for the next values; noted with them: radioligand used at 2 nM.
For the molecule `CNCCc1cnc[nH]1` [[^3H]N^α-methylhistamine, reference compound], the Kd was 3.08 nM.

The next series relates to electrically stimulated guinea pig ileum. Description: Decrease of contractility in electrically stimulated guinea pig ileum (-log EC50 determination). Particulars: Cavia porcellus; electrically stimulated guinea pig ileum; read-out: Decrease of contractility (-logEC50 ± sem) (converted). As to the method:
A standard ex vivo assay based on the relaxant response of histamine H3R agonists to electrically driven guinea pig ileum was used to test the influence of ADS compounds on the reduction of electrically evoked tissue contraction. […] The −log EC50 value for RAMH and ADS compounds were evaluated. […] Following this, we decided to evaluate the ADS series as potential M2R/M3R ligands on the isolated guinea pig ileum.
Male guinea pigs, weighing 300–400 g, were euthanized by a blow to the neck. A 20–30 cm length of the distal ileum, apart from the terminal 5 cm, was rapidly removed and placed in phosphate buffer at room temperature (pH 7.4) containing (mM) NaCl (136.9), KCl (2.6), KH2PO4 (1.47), Na2HPO4 (9.58), and indomethacin (1 × 10^–6 mol/L)). The intraluminal content was rinsed, and the isolated intestine was cut into 1.5–2 cm segments. The preparations were mounted between two platinum electrodes isotonically in a 20 mL organ bath filled with Krebs buffer: composition (mM) NaCl (118), KCl (5.6), MgSO4 (1.18), CaCl2 (2.5), NaH2PO4·H2O (1.28), NaHCO3 (25), glucose (5.55), and indomethacin (3 × 10^–7 mol/L). The solution was continuously bubbled with a 95% O2:5% CO2 mixture and maintained at 37 °C under a constant load of 1.0 g (Hugo Sachs Hebel–Messvorsatz (Tl-2)/HF-modem; Hugo Sachs Elektronik, Hugstetten, Germany) connected to a pen recorder (Kipp & Zonen BD41, Delft, Holland). During an equilibration period of 60 min, Krebs buffer was changed every 10 min. Following this, the preparations were continuously stimulated at 15–20 V, at a frequency of 0.1 Hz for a duration of 0.5 ms, with rectangular-wave electrical pulses (Grass Stimulator S-88; Grass Instruments Co., Quincy, Massachusetts, USA). […] Cumulative concentration–response curve was determined to RAMH or tested agonist (10 nM to 10 mM) at increasing concentrations spaced by 3- or 3.3-fold. The agonist potency is expressed as pD2 value (−log EC50) ± sem.
In the case of `N=C(N)N(CCCCN1CCN(Cc2ccc(COc3ccccc3)cc2)CC1)Cc1ccc(C(F)(F)F)cc1` [ADS10183], the EC50 was 2290 nM.
As for `N=C(N)N(CCCCN1CCN(Cc2ccc(COc3ccccc3)cc2)CC1)Cc1ccccc1` [ADS10185], the EC50 is 3090 nM.
On to `[H]/N=C(\N)N(CCCCN1CCN(CC2CCC(COc3ccccc3)CC2)CC1)Cc1ccc(C(F)(F)F)cc1` (stereo not drawn) [ADS10207], for which the EC50 is 724 nM.
`N=C(N)N(CCCCN1CCN(Cc2ccc(Oc3ccccc3)cc2)CC1)Cc1ccc(C(F)(F)F)cc1` [ADS10210]: the EC50 is 575 nM.
Same read-out and setting: then `N=C(N)N(CCCCN1CCN(C[C@H]2CC[C@H](COc3ccccc3)CC2)CC1)Cc1ccccc1` [ADS10283], with 832 nM.

The same series, now with this note: electrically stimulated guinea pig ileum.
On to `C[C@@H](N)Cc1c[nH]cn1` [RAMH, (R)(−)-α-methylhistamine, reference compound], for which the “Decrease of contractility (-logEC50 ± sem)” value worked out at 7.70±0.07.

The series is the same for the next values; noted with them: electrically stimulated guinea pig ileum; from concentration–response curves.
As to `C[C@@H](N)Cc1c[nH]cn1` [RAMH, (R)(−)-α-methylhistamine, reference compound], the “intrinsic activity (maximal response as fraction of maximal response of the system)” value is recorded as 0.82.
